Measured values: patent publication US20190262330A1, “Method of Treating Hepatocellular Carcinoma Using N-(4-(6,7-dimethoxyquinolin-4-yloxy)phenyl)-N′-(4-fluorophenyl)cyclopropane-1,1-dicarboxamide, (2S)-hydroxybutanedioate” (Exelixis, Inc., priority 2017, published 2019)

Tests used:
[1] = biological target: CYP3A4 (Homo sapiens, UniProt P08684); assay: Drug interaction with strong CYP3A4 inhibitor ketoconazole; assay type: in vivo; set-up: from tissue; conditions: ketoconazole 400 mg daily for 27 days, healthy subjects
[2] = biological target: VEGFR-3 (Homo sapiens, UniProt P35916); assay: In vitro biochemical and/or cellular kinase assays
[3] = test system: juvenile rats; assay type: in vivo, rat
Protocol: […]. Mortalities occurred at doses equal and greater than 1 mg/kg/day (approximately 0.16 times the clinical dose of 60 mg/day based on body surface area).

[4] = biological target: MER (Homo sapiens, UniProt Q12866); assay: In vitro biochemical and/or cellular kinase assays
[5] = test system: female rats; assay: 14-day general toxicology study in female rats; assay type: in vivo, rat; conditions: 5 mg/kg/day for 14 days
[6] = test system: female rats and offspring; assay: Pre- and postnatal study in rats; conditions: oral, gestation day 10 through postnatal day 20
[7] = biological target: CYP2D6 (Homo sapiens, UniProt P10635); assay: In vitro metabolic pathways; assay type: in vitro ADME
Sequence of CYP2D6 (P10635 whole entry): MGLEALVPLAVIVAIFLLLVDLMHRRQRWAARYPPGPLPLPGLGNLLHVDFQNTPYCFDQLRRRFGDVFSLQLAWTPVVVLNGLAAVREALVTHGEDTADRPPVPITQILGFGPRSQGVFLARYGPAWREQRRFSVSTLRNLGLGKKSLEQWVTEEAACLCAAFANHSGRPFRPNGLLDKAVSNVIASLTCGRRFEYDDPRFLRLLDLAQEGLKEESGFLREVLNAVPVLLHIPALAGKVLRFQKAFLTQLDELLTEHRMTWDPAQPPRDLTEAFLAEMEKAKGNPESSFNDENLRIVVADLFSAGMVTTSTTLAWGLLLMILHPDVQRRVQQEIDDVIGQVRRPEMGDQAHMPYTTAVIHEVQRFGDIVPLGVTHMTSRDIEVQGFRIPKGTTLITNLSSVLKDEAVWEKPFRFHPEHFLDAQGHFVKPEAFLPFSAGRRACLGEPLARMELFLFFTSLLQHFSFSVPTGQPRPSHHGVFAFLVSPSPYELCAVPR

Sequence of MER (Q12866 21-999): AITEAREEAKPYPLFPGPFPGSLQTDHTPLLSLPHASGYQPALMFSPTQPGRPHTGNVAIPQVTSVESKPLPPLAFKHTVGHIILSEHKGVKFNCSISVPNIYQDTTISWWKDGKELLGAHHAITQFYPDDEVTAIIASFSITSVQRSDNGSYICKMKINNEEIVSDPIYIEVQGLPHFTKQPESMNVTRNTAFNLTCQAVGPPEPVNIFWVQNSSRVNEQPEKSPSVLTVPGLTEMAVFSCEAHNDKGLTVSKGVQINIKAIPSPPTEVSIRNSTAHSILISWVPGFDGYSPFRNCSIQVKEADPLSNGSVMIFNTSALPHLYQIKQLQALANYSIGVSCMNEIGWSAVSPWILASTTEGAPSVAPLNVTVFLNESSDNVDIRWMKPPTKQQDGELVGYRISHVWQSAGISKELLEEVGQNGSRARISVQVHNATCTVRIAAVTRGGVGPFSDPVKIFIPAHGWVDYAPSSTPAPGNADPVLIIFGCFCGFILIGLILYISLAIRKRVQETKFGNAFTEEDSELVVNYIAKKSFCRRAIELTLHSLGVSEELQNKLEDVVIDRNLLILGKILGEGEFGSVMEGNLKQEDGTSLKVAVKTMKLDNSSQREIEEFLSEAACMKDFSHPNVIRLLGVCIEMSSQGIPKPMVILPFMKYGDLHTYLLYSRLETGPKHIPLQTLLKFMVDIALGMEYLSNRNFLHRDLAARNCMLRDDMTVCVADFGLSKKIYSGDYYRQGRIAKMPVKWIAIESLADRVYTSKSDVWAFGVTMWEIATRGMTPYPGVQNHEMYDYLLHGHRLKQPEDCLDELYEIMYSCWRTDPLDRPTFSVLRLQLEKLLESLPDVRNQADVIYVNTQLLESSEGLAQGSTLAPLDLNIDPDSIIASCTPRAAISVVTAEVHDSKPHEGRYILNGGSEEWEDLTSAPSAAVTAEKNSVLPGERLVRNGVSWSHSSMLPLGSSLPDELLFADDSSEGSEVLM
Sequence of VEGFR-3 (P35916 25-1363): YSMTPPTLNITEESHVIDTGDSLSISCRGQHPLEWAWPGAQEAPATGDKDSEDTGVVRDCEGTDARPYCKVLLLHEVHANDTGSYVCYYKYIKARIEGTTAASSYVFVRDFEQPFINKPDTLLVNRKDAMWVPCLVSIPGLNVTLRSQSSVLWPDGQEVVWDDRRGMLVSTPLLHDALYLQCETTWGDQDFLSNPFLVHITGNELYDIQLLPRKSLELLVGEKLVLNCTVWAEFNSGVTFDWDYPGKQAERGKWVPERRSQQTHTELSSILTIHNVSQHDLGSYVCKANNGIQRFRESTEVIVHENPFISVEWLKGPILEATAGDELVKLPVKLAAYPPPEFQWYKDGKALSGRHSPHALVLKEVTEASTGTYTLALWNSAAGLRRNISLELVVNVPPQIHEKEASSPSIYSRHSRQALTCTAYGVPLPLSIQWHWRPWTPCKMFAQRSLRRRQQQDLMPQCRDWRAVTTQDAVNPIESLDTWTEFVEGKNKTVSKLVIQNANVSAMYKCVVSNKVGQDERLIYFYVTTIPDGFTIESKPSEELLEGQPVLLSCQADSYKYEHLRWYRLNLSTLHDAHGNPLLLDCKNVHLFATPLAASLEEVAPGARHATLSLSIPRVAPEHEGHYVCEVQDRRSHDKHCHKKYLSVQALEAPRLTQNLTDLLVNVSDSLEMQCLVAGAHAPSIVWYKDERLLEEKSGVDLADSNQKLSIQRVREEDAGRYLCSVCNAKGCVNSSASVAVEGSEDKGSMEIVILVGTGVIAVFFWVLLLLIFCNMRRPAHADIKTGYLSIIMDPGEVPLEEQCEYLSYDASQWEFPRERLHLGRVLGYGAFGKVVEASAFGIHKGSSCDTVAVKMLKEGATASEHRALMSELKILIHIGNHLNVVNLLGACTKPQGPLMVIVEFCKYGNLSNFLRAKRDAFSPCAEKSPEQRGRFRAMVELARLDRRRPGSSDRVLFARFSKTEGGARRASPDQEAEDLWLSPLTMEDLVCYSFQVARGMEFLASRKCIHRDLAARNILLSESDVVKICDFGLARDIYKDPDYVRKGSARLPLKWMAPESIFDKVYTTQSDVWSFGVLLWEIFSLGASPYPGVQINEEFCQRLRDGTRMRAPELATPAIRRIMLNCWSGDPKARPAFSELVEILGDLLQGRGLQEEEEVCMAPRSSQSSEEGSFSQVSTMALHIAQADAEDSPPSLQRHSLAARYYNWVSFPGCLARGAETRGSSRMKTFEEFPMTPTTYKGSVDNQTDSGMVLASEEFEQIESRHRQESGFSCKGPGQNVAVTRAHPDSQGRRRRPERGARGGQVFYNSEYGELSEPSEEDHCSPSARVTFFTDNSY
Sequence of CYP3A4 (P08684 whole entry): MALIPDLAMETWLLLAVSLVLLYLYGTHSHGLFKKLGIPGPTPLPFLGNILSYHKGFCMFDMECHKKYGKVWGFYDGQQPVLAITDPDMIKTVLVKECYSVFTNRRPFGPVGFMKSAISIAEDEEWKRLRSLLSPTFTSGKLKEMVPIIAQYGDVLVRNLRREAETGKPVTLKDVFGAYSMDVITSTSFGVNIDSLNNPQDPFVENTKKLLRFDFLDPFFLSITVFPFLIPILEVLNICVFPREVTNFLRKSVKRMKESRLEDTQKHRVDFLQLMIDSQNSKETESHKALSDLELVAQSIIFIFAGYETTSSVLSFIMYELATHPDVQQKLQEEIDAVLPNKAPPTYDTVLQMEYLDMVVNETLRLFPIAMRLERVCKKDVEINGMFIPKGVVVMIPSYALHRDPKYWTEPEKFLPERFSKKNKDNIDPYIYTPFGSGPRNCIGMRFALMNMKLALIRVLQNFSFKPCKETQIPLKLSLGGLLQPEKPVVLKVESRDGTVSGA

For COc1cc2nccc(Oc3ccc(NC(=O)C4(C(=O)Nc5ccc(F)cc5)CC4)cc3)c2cc1OC [cabozantinib], the “Increase of single-dose plasma exposure (AUC0-inf)” value [1] was 38%, the “Tyrosine kinase activity of VEGFR-3” value [2] was “inhibits” and the Mortality ([3]; 2 mg/kg) was “high levels of mortality”. For the same compound, the Effects on bones ([3]; rat, in vivo) was “reduced bone mineral content and density, physeal hypertrophy, and decreased cortical bone”, the “Recovery after treatment ceased” value ([3]; rat, in vivo) was “effects on bone parameters were partially resolved but effects on the kidney and epididymis/testis persisted” and the Target organs ([3]; rat, in vivo) was “kidney (nephropathy, glomerulonephritis), reproductive organs, gastrointestinal tract”. The “1 mg/kg/day as times the clinical dose of 60 mg/day based on body surface area” value ([3]; rat, in vivo, 1 mg/kg/day) was “approximately 0.16 times”, the “2 mg/kg as times the clinical dose of 60 mg based on body surface area” value ([3]; rat, in vivo, 2 mg/kg) was “approximately 0.32 times” and the “Tyrosine kinase activity of MER” value [4] was “inhibits”. The Ovarian finding [5] was “ovarian necrosis”, the “Doses without adverse maternal toxicity or effect on offspring survival, growth or postnatal development” value [6] was “up to 0.3 mg/kg/day” and the “Effect of inhibition of CYP2D6 on metabolite formation” value [7] was “no effect”.
